# How the values were obtained:
# HepG2 [1] = assay: Ratio of glucose consumption to cytotoxic OD490 absorbance for Homo sapiens (human) HepG2 cells (reference value: 3.438 +/-0.139 no unit)
# HepG2 [2] = assay: Hypoglycemic activity in Homo sapiens (human) HepG2 cells assessed as glucose consumption at 10 mg/l after 24 hr by glucose enzymatic assay (reference value: 1.972 +/-0.071 mmol/l); type: functional
# HepG2 [3] = assay: Cytotoxicity against Homo sapiens (human) HepG2 cells assessed as absorbance at 490 nm by MTT assay (reference value: 0.574 +/-0.019 no unit); type: cell-based; details: hepg2, 10 mg/L
# HepG2 [4] = assay: Hypoglycemic activity in Homo sapiens (human) HepG2 cells assessed as glucose consumption at 1 mg/l after 24 hr by glucose enzymatic assay (reference value: 1.972 +/-0.071 mmol/l); type: functional
Compound,Ratio (HepG2 [1]),Activity (HepG2 [2]) [mmol/L],OD (HepG2 [3]),Activity (HepG2 [4]) [mmol/L]
CC(=O)Oc1cccc2c1C(=O)c1c(OC(C)=O)cc(C(=O)NC3CCCC3)cc1C2=O,3.916,2.256,0.577,2.151
CC(=O)Oc1cccc2c1C(=O)c1c(OC(C)=O)cc(C(=O)OCc3ccc([N+](=O)[O-])cc3)cc1C2=O,3.958,2.268,0.573,2.198
CC(C)(C)[Si](C)(C)Oc1cccc2c1C(=O)c1c(O[Si](C)(C)C(C)(C)C)cc(C(=O)NC3CCCC3)cc1C2=O,4.563,2.578,0.565,2.369
CC(C)(C)[Si](C)(C)Oc1cccc2c1C(=O)c1c(O[Si](C)(C)C(C)(C)C)cc(C(=O)OCc3ccc([N+](=O)[O-])cc3)cc1C2=O,4.499,2.529,0.563,2.576
CN(C)C(=O)c1cc(O)c2c(c1)C(=O)c1cccc(O)c1C2=O,4.449,2.485,0.56,2.444
O=C1c2cccc(O)c2C(=O)c2c(O)cc(C(=O)N3CCCC3)cc21,4.116,2.315,0.565,2.379
CC(=O)Oc1cccc2c1C(=O)c1c(OC(C)=O)cc(C(=O)N3CCCC3)cc1C2=O,4.304,2.541,0.591,2.476
CN(C)C(=N)NC(=N)N [METFORMIN],3.923,2.25,0.574,

# Reference: ChEMBL document CHEMBL3045105, “Synthesis and hypoglycemic activity evaluation of rhein amide derivatives” (Med Chem Res, 2013)
